One test concerns GAL-XOR-6. Nature of the test: cotransfection assay, activation of GAL-XOR6 in CV-1 cells. The test is classed as cell-based, Xenopus laevis. The conditions noted are these: for rank order potency of activation, esters differing in alkyl length (FIG. 3): 10^−6M of each compound; for activation of GAL-XOR-6 by agonist cocktail: cocktail: thyroid hormone 10^−7M, vitamin D3 10^−7M, all-trans RA 10^−6M, WY-14,643 5×10^−6M. On the procedure:
FIG. 3 illustrates the activation of XOR-6 by a variety of amino benzoate derivatives. Thus, 10^−6M of each compound was tested in the co-transfection assay for its ability to activate GAL-XOR6.
It can be concluded, therefore, that XOR-6 defines a novel RXR-dependent, ligand-mediated signalling pathway.
pCMX-GAL4-XOR6 was constructed by cloning nucleotides encoding amino acids 103 to 386 of XOR-6 into the SalI to XbaI sites of pCMX-GAL4 (see U.S. Ser. No. 08/177,740).
(§1) CV-1 cells were maintained in DMEM containing 10% resin-charcoal stripped fetal bovine serum. Liposome-mediated transient transfections were performed using DOTAP reagent (Boehringer Manheim) at a concentration of 5 μg/ml in Opti-MEM (Gibco). After 12-18 hours, the cells were washed and fresh DMEM-10% serum was added, including receptor agonists if required. After a further 48 hour incubation, the cells were lysed and luciferase reporter gene assays and β-galactosidase transfection control assays performed. Reporter gene expression is normalized to the β-galactosidase transfection control and expressed as relative light units per O.D. per minute of β-galactosidase activity.

The test system of another test is XOR-6. As to the kind of experiment: cotransfection assay, activation of XOR-6 in transfected CV-1 cells. To be noted: for activation of XOR-6 (agonist activity in the cotransfection assay): transfected CV-1 cells; for rank order potency of XOR-6 activation, ortho/meta/para amino ethyl benzoates: cotransfection assay. The test is classed as cell-based, Xenopus laevis. On the procedure: A search for the XOR-6 ligand was instituted based on the presumption that the receptor and its ligand must be co-expressed at some time during development. Accordingly, an unbiased, bioassay directed screen for XOR-6 agonists was undertaken in HPLC fractionated organic extracts derived from a mixture of developmental stages. Total lipid extracts from a mixture of embryonic stages from fertilized eggs through swimming tadpoles were prepared and tested for the ability to activate both GAL-XOR6 or full-length XOR-6 in transfected CV-1 cells.
The total extract was partitioned between iso-octane and MeOH and again tested for bioactivity.
A suitable eukaryotic expression vector for use herein was constructed from the commercially available vector pCDNAI-AMP (Invitrogen). This vector allows expression from the strong cytomegalovirus early promoter, and bacteriophage T7 and SP6 promoter-driven production of sense and antisense RNA, respectively.
The cloning strategy employed was as follows: the three endogenous NcoI sites were removed by site directed mutagenesis, the polylinker region between XhoI and XbaI was removed by double digestion, endfilling and self ligation. […] The resulting plasmid, designated pCDG1, can be linearized with NotI to produce mRNA from the bacteriophage T7 promoter. The XOR-6 protein coding region was cloned between the NcoI and BamHI sites of pCDG1 and designated pCDG-XOR6.
as §1

Another test concerns XOR6:xRXRα heterodimer. As to the kind of experiment: co-transfection experiments, responsiveness of heterodimer to two ligands. The test is classed as cell-based, Xenopus laevis. To be noted: receptor dependent manner. On the procedure:
Receptors were transfected into cells and incubated with the indicated concentrations of agonists.
A potentially significant property of the XOR6:xRXRα heterodimer is its responsiveness to two ligands. […] This synergism occurs at several dilutions of the XOR-6 agonist and concentrations of 9-cis RA (see FIG. 4). […] Such complexes would be ideal candidates for responding to combinations of graded morphogenetic signals during development.
as §1

For another test, the target named is T1, xRXRα (Xenopus laevis, UniProt P51128).
T1 construct: made in house; host or cells: coupled in vitro transcription/translation (TNT, Promega)
T1 sequence (P51128 1-488): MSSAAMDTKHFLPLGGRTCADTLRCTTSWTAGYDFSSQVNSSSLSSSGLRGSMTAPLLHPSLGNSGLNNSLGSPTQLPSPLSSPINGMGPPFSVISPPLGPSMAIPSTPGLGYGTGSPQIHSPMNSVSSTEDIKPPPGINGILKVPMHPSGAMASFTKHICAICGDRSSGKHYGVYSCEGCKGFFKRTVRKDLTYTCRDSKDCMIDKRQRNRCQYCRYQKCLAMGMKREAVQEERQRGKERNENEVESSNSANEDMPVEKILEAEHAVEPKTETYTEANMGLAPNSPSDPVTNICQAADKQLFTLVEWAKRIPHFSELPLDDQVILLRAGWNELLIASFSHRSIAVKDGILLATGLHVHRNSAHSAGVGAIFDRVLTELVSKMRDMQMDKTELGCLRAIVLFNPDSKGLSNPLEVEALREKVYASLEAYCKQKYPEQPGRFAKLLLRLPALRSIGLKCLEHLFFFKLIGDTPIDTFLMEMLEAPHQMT
Nature of the test: protease protection assay (ligand binding), parallel experiment. The conditions noted are these: parallel experiment with xRXRα. The text has this: Biol. 14:287-298 (1994) was utilized.

The test system of a further test is βRARE. Nature of the test: interference of XOR-6 overexpression with retinoic acid signalling through βRARE in CV-1 cells. The test is classed as cell-based. To be noted: 1 μg expression plasmid co-transfected into CV-1 cells with 5 μg tk-β REx2-luc, all-trans retinoic acid. On the procedure:
1 μg of XOR-6 expression plasmid was co-transfected into CV-1 cells with 5 μg of tk-β REx2-luc, and challenged with the indicated concentrations of all-trans retinoic acid.
Because XOR-6:RXR heterodimers bind well to a retinoic acid response element, βRARE, it was tested whether overexpression of XOR-6 could influence retinoic acid signalling through this element. […] This effect was strongest with full-length XOR-6 (24% of wild-type activity) but still detectable with GAL-XOR-6 (44% of wild-type activity).
as §1

`CCCCOC(=O)c1ccc(N)cc1`: the “rank order potency of activation, esters differing in alkyl length (FIG. 3)” value with GAL-XOR-6 is 4-amino-butyl benzoate>3-amino-ethyl benzoate>4-amino-ethyl benzoate>>4-amino methyl benzoate.

For the molecule `Nc1ccc(C(=O)O)c(O)c1` [4-amino salicylic acid, reference compound], in the test on XOR-6, the “activation of XOR-6 (agonist activity in the cotransfection assay)” value is “not possible, however, to demonstrate XOR-6 activation”.

As to `CCOC(=O)c1ccc(N)cc1` [4-AEB, 4-amino-ethyl benzoate], in the test on XOR-6, the “rank order potency of XOR-6 activation, ortho/meta/para amino ethyl benzoates” value is on record as 3-AEB>4-AEB>>2-AEB and the “activation of XOR-6 (agonist activity in the cotransfection assay)” value is reported as “activated”. For the same molecule, the “rank order potency of activation, esters differing in alkyl length (FIG. 3)” value with GAL-XOR-6 is 4-amino-butyl benzoate>3-amino-ethyl benzoate>4-amino-ethyl benzoate>>4-amino methyl benzoate.

With `COC(=O)c1ccc(N)cc1` [4-amino methyl benzoate], in the test on GAL-XOR-6, the “rank order potency of activation, esters differing in alkyl length (FIG. 3)” value is recorded as 4-amino-butyl benzoate>3-amino-ethyl benzoate>4-amino-ethyl benzoate>>4-amino methyl benzoate.

For `Nc1ccccc1C(=O)O` [2-amino benzoic acid, reference compound], the “activation of XOR-6 (agonist activity in the cotransfection assay)” value with XOR-6 is on record as “not possible, however, to demonstrate XOR-6 activation”.

As for `CC1=C(/C=C/C(C)=C\C=C\C(C)=C\C(=O)O)C(C)(C)CCC1` [9-cis RA, 9-cis retinoic acid], the “stimulation of reporter gene expression” value with XOR6:xRXRα heterodimer is listed as “stimulated reporter gene expression”.

On to `C=C1CC[C@H](O)C/C1=C/C=C1\CCC[C@]2(C)[C@@H]([C@H](C)CCCC(C)C)CC[C@@H]12` [vitamin D3, reference compound], for which, in the test with GAL-XOR-6, the “activation of GAL-XOR-6 by agonist cocktail” value is recorded as “not activated”.

Take `Nc1cccc(C(=O)O)c1O` [3-amino salicylic acid, reference compound]: the “activation of XOR-6 (agonist activity in the cotransfection assay)” value with XOR-6 is given as “not possible, however, to demonstrate XOR-6 activation”.

As to `Cc1cccc(Nc2cc(Cl)nc(SCC(=O)O)n2)c1C` [WY-14,643, reference compound], in the test with GAL-XOR-6, the “activation of GAL-XOR-6 by agonist cocktail” value was “not activated”.

Turning to `CCOC(=O)c1ccccc1N` [2-AEB], in the test with XOR-6, the “rank order potency of XOR-6 activation, ortho/meta/para amino ethyl benzoates” value is on record as 3-AEB>4-AEB>>2-AEB and the “activation of XOR-6 (agonist activity in the cotransfection assay)” value is recorded as “activated”.

On to `CC1=C(/C=C/C(C)=C/C=C/C(C)=C/C(=O)O)C(C)(C)CCC1` [all-trans RA, all-trans retinoic acid, reference compound], for which, in the test with GAL-XOR-6, the “activation of GAL-XOR-6 by agonist cocktail” value is “not activated”.

As to `N[C@@H](Cc1cc(I)c(Oc2ccc(O)c(I)c2)c(I)c1)C(=O)O` [thyroid hormone, reference compound], in the test with GAL-XOR-6, the “activation of GAL-XOR-6 by agonist cocktail” value is “not activated”.

Regarding `CCOC(=O)c1cccc(N)c1` [3-AEB], the “protection from trypsin cleavage” value at xRXRα is “not seen”. Also, in the test on XOR-6, the “specificity of activation among an extensive collection of vertebrate nuclear receptors” value is on record as “specifically activates XOR-6 alone” and the “activation of XOR-6 (agonist activity in the cotransfection assay)” value is on record as “potent agonist”. Besides, in the test on XOR-6 (listed as meta amino ethyl benzoate), the “activation of XOR-6 (agonist activity in the cotransfection assay)” value is reported as “activated”. The “rank order potency of activation, esters differing in alkyl length (FIG. 3)” value in the test on GAL-XOR-6 was 4-amino-butyl benzoate>3-amino-ethyl benzoate>4-amino-ethyl benzoate>>4-amino methyl benzoate.

`Nc1ccc(C(=O)O)cc1` [4-amino benzoic acid, 4-amino-benzoic acid, reference compound]: the “activation of XOR-6 (agonist activity in the cotransfection assay)” value in the test with XOR-6 is on record as “not possible, however, to demonstrate XOR-6 activation”.

As for `Nc1cccc(C(=O)O)c1` [3-amino benzoic acid, reference compound], the “activation of XOR-6 (agonist activity in the cotransfection assay)” value in the test on XOR-6 is listed as “not possible, however, to demonstrate XOR-6 activation”.

B1: full-length XOR-6: Xenopus Orphan Receptor 6, about 386 amino acids (SEQ ID NO:2), overexpressed from plasmid (protein)
chain: MWKVQETLVLEEEEEEEDASNSCGTGEDEDDGDPKICRACGDRATGYHFNAMTCEGCKGFFRRAVKRNLRLSCPFQNSCVINKSNRRHCQACRLKKCLDIGMRKELIMSDAAVEQRRALIKRKHKLTKLPPTPPGASLTPEQQHFLTQLVGAHTKTFDFNFTFSKNFRPIRRSSDPTQEPQATSSEAFLMLPHISDLVTYMIKGIISFAKMLPYFKSLDIEDQIALLKGSVAEVSVIRFNTVFNSDTNTWECGPFTYDTEDMFLAGFRQLFLEPLVRIHRMMRKLNVQSEEYAMMAALSIFASYRPGVCDWEKIQKLQEHIALTLKDFIDSQRPPSPQNRLLYPKIMECLTELRTVNDIHSKQLLEIWDIQPDATPLMREVFGSPE
As for B1, the “retinoic acid-responsiveness of βRARE promoter on co-expression” value in the test on βRARE is reported as 24 % of wild-type activity.

B2: GAL-XOR-6: GAL4 fusion with amino acids 103 to 386 of XOR-6 (pCMX-GAL4-XOR6) (protein)
chain: RKELIMSDAAVEQRRALIKRKHKLTKLPPTPPGASLTPEQQHFLTQLVGAHTKTFDFNFTFSKNFRPIRRSSDPTQEPQATSSEAFLMLPHISDLVTYMIKGIISFAKMLPYFKSLDIEDQIALLKGSVAEVSVIRFNTVFNSDTNTWECGPFTYDTEDMFLAGFRQLFLEPLVRIHRMMRKLNVQSEEYAMMAALSIFASYRPGVCDWEKIQKLQEHIALTLKDFIDSQRPPSPQNRLLYPKIMECLTELRTVNDIHSKQLLEIWDIQPDATPLMREVFGSPE
modifications: left off: large carriers
On to B2, for which the “retinoic acid-responsiveness of βRARE promoter on co-expression” value in the test on βRARE is given as 44 % of wild-type activity.

For the origin of these results see US6391847B1, “Method, polypeptides, nucleotide sequence of XOR-6, a vitamin D-like receptor from xenopus” (The Salk Institute for Biological Studies, priority 1995, dated 2002).
